Each structure is given as a SMILES string.

truncated Polθ protein (Polθ-Hel containing the helicase domain (67-894)), sequence (O75417 67-894): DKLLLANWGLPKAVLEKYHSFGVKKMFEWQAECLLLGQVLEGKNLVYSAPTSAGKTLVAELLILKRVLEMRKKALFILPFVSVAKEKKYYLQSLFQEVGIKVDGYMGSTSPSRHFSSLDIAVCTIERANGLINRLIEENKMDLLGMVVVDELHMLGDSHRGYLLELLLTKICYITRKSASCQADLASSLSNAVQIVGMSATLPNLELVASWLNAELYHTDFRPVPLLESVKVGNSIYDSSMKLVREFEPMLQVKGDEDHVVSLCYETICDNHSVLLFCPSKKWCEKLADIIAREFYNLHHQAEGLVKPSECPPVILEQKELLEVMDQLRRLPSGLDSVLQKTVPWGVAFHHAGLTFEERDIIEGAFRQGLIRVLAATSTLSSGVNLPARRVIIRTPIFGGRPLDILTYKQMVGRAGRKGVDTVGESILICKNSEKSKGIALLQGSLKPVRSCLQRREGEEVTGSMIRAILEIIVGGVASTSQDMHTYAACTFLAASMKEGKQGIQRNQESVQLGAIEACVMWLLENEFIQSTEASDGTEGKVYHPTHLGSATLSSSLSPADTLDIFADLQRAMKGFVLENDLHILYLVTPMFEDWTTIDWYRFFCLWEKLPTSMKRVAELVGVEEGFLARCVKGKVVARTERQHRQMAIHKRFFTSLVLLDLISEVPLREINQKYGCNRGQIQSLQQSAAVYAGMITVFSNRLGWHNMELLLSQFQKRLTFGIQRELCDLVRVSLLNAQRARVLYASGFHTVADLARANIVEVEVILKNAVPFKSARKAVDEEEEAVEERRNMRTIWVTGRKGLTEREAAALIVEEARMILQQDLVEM

The test addresses truncated Polθ protein (Polθ-Hel containing the helicase domain (67-894)) (Homo sapiens (Human), UniProt O75417). The test is described as follows: Polθ ATPase assay (Biological Assay 1, ADP-Glo luminescence). Format: biochemical. Particulars: Polθ-Hel 0.5 nM, DNA substrate 500 nM, ATP 60 μM, 23° C.; read-out: Pole ATPase assay IC50. How it is done: The Polθ ATPase assay was used to evaluate inhibitors of Polθ ATPase activity, in vitro. Experiments were performed using a truncated Polθ protein (Polθ-Hel containing the helicase domain (67-894), ATP and a DNA single strand Oligo (5′-CTGTCCTGCATGATG-3′) in the Polθ assay buffer (20 mM Tis-HCl (pH 8.8), MgCl2 5 mM, tween20 0.01%, NP40 0.01%, BSA 0.01%, DTT 1 mM). 2 μL of assay buffer containing Pole-Hel protein (0.5 nM) and DNA substrate (500 nM) was transferred into assay ready plates, containing 0.04 μL of compounds diluted in DMSO. After a 30 minutes incubation at 23° C. in the dark, the reaction was triggered by adding 2 μL of ATP (60 μM), in assay buffer. After 60 minutes at 23° C., 4 μl of ADP-Glo™ Reagent (Glo 1) was added followed by 40 minutes of incubation, then 8 μl of ADP-Glom kinase Detection Reagent (Glo 2) followed by 60 minutes of incubation at 23° C. Luminescence was then measured using Tecan F200 infinite plate reader. Raw data were analysed using GeneData to generate IC50 values.
The Polθ ATPase assay described in Biological Assay 1 above was used to evaluate inhibitors of Polθ ATPase activity for the compounds described in the Experimental Part B above, in vitro.
In the case of `COc1cnc(Cl)cc1-c1cc(C)ncc1C(=O)Nc1nc2cnc(N3CCCCC3)nc2s1` [Example 20, 2′-chloro-5′-methoxy-6-methyl-N-[5-(piperidin-1-yl)-[1,3]thiazolo[5,4-d]pyrimidin-2-yl]-[4,4′-bipyridine]-3-carboxamide], the half-inhibitory concentration (IC50) is less than 100 nM.

Consider `COc1cnc(Cl)cc1-c1cc(C)ncc1C(=O)Nc1nc2cnc(N3CCC(F)(F)CC3)nc2s1` [Example 21, 2′-chloro-N-[5-(4,4-difluoropiperidin-1-yl)-[1,3]thiazolo[5,4-d]pyrimidin-2-yl]-5′-methoxy-6-methyl-[4,4′-bipyridine]-3-carboxamide], for which the half-maximal inhibitory concentration (IC50) is less than 100 nM. Under `COc1cnc(Cl)cc1-c1cc(C)ncc1C(=O)Nc1nc2cnc(N3CCOCC3)nc2s1` [Example 22, 2′-chloro-5′-methoxy-6-methyl-N-[5-(morpholin-4-yl)-[1,3]thiazolo[5,4-d]pyrimidin-2-yl]-[4,4′-bipyridine]-3-carboxamide] stands less than 100 nM; under `COc1cnc(Cl)cc1-c1cc(C)ncc1C(=O)Nc1nc2cnc(N3CC[C@H](O)C3)nc2s1` [Example 23, 2′-chloro-N-{5-[(3S)-3-hydroxypyrrolidin-1-yl]-[1,3]thiazolo[5,4-d]pyrimidin-2-yl}-5′-methoxy-6-methyl-[4,4′-bipyridine]-3-carboxamide], less than 100 nM; under `COc1cnc(Cl)cc1-c1cc(C)ncc1C(=O)Nc1nc2cnc(N3CCCC3)nc2s1` [Example 24, 2′-chloro-5′-methoxy-6-methyl-N-[5-(pyrrolidin-1-yl)-[1,3]thiazolo[5,4-d]pyrimidin-2-yl]-[4,4′-bipyridine]-3-carboxamide], less than 100 nM. In the case of `COc1cnc(Cl)cc1-c1cc(C)ncc1C(=O)Nc1nc2cnc(N3CCC(F)(F)C3)nc2s1` [Example 25, 2′-chloro-N-[5-(3,3-difluoropyrrolidin-1-yl)-[1,3]thiazolo[5,4-d]pyrimidin-2-yl]-5′-methoxy-6-methyl-[4,4′-bipyridine]-3-carboxamide], the IC50 is less than 100 nM. As for `COc1cnc(Cl)cc1-c1cc(C)ncc1C(=O)Nc1nc2cnc(N3CC[C@@H](O)C3)nc2s1` [Example 26, 2′-chloro-N-{5-[(3R)-3-hydroxypyrrolidin-1-yl]-[1,3]thiazolo[5,4-d]pyrimidin-2-yl}-5′-methoxy-6-methyl-[4,4′-bipyridine]-3-carboxamide], the figure is less than 100 nM; as for `COc1cnc(Cl)cc1-c1cc(C)ncc1C(=O)Nc1nc2cnc(N3CCS(=O)(=O)CC3)nc2s1` [Example 27, 2′-chloro-N-[5-(1,1-dioxo-1λ^6-thiomorpholin-4-yl)-[1,3]thiazolo[5,4-d]pyrimidin-2-yl]-5′-methoxy-6-methyl-[4,4′-bipyridine]-3-carboxamide], less than 100 nM.

As to `COc1cnc(Cl)cc1-c1cc(C)ncc1C(=O)Nc1nc2cnc(N3CCN(C)CC3)nc2s1` [Example 28, 2′-chloro-5′-methoxy-6-methyl-N-[5-(4-methylpiperazin-1-yl)-[1,3]thiazolo[5,4-d]pyrimidin-2-yl]-[4,4′-bipyridine]-3-carboxamide], the IC50 is less than 100 nM. As for `COc1cnc(Cl)cc1-c1cc(C)ncc1C(=O)Nc1nc2cnc(N3CC4(COC4)C3)nc2s1` [Example 29, 2′-chloro-5′-methoxy-6-methyl-N-(5-{2-oxa-6-azaspiro[3.3]heptan-6-yl}-[1,3]thiazolo[5,4-d]pyrimidin-2-yl)-[4,4′'-bipyridine]-3-carboxamide], the figure is less than 100 nM; as for `COCCNc1ncc2nc(NC(=O)c3cnc(C)cc3-c3cc(Cl)ncc3OC)sc2n1` [Example 30, 2′-chloro-5′-methoxy-N-{5-[(2-methoxyethyl)amino]-[1,3]thiazolo[5,4-d]pyrimidin-2-yl}-6-methyl-[4,4′-bipyridine]-3-carboxamide], less than 100 nM. As for `COc1cnc(Cl)cc1-c1cc(C)ncc1C(=O)Nc1nc2cnc(N3CC(O)C3)nc2s1` [Example 31, 2′-chloro-N-[5-(3-hydroxyazetidin-1-yl)-[1,3]thiazolo[5,4-d]pyrimidin-2-yl]-5′-methoxy-6-methyl-[4,4′-bipyridine]-3-carboxamide], the figure is less than 100 nM; as for `COc1cnc(Cl)cc1-c1cc(C)ncc1C(=O)Nc1nc2cnc(N3CCC(OC)C3)nc2s1` (stereo not shown) [Example 32, 2′-chloro-5′-methoxy-N-[5-(3-methoxypyrrolidin-1-yl)-[1,3]thiazolo[5,4-d]pyrimidin-2-yl]-6-methyl-[4,4′-bipyridine]-3-carboxamide], less than 100 nM; as for `COc1cnc(Cl)cc1-c1cc(C)ncc1C(=O)Nc1nc2cnc(N3CCC(O)CC3)nc2s1` [Example 33, 2′-chloro-N-[5-(4-hydroxypiperidin-1-yl)-[1,3]thiazolo[5,4-d]pyrimidin-2-yl]-5′-methoxy-6-methyl-[4,4′-bipyridine]-3-carboxamide], less than 100 nM.

As to `COc1cnc(Cl)cc1-c1cc(C)ncc1C(=O)Nc1nc2cnc(N3C[C@@H]4C[C@H]3CO4)nc2s1` [Example 34, 2′-chloro-5′-methoxy-6-methyl-N-{5-[(1S,4S)-2-oxa-5-azabicyclo[2.2.1]heptan-5-yl]-[1,3]thiazolo[5,4-d]pyrimidin-2-yl}-[4,4′-bipyridine]-3-carboxamide], the IC50 was less than 100 nM. In the case of `COc1cnc(Cl)cc1-c1cc(C)ncc1C(=O)Nc1nc2cnc(N3CCCC(C#N)C3)nc2s1` (stereo not shown) [Example 35, 2′-chloro-N-[5-(3-cyanopiperidin-1-yl)-[1,3]thiazolo[5,4-d]pyrimidin-2-yl]-5′-methoxy-6-methyl-[4,4′-bipyridine]-3-carboxamide], the IC50 is less than 100 nM. As for `COc1cnc(Cl)cc1-c1cc(C)ncc1C(=O)Nc1nc2ccc(N)cc2s1` [Example 36A, N-(6-amino-1,3-benzothiazol-2-yl)-4-(2-chloro-5-methoxy-4-pyridyl)-6-methyl-pyridine-3-carboxamide], the IC50 was in the range of 100 to 1000 nM. Under `COc1cnc(Cl)cc1-c1cc(C)ncc1C(=O)Nc1nc2ccc(N3CCCCC3=O)cc2s1` [Example 36B, 2′-chloro-5′-methoxy-6-methyl-N-[6-(2-oxopiperidin-1-yl)-1,3-benzothiazol-2-yl]-[4,4′-bipyridine]-3-carboxamide] stands less than 100 nM; under `COc1cnc(Cl)cc1-c1cc(C)ncc1C(=O)Nc1nc2ccc(C3=CCCOC3)nc2s1` [Example 37, 2′-chloro-N-[5-(5,6-dihydro-2H-pyran-3-yl)-[1,3]thiazolo[5,4-b]pyridin-2-yl]-5′-methoxy-6-methyl-[4,4′-bipyridine]-3-carboxamide], less than 100 nM. As for `COc1cnc(Cl)cc1-c1cc(C)ncc1C(=O)Nc1nc2ccc(-c3ccc(Cl)cn3)cc2s1` [Example 38, 2′-chloro-N-[6-(5-chloropyridin-2-yl)-1,3-benzothiazol-2-yl]-5′-methoxy-6-methyl-[4,4′-bipyridine]-3-carboxamide], the figure is less than 100 nM; as for `COc1ccccc1-c1cnccc1C(=O)Nc1nc2ccc(-c3ccc(Cl)cn3)cc2s1` [Example 39, N-[6-(5-chloropyridin-2-yl)-1,3-benzothiazol-2-yl]-3-(2-methoxyphenyl)pyridine-4-carboxamide], 100 to 1000 nM. As for `COc1cnc(Cl)cc1-c1cc(C)ncc1C(=O)Nc1nc2ccc(C3(O)CCOC3)cc2s1` (stereo not shown) [Example 40, 2′-chloro-N-[6-(3-hydroxyoxolan-3-yl)-1,3-benzothiazol-2-yl]-5′-methoxy-6-methyl-[4,4′-bipyridine]-3-carboxamide], the figure is 100 to 1000 nM; as for `COc1cnc(Cl)cc1-c1cc(C)ncc1C(=O)Nc1nc2ccc(NS(C)(=O)=O)cc2s1` [Example 41, 2′-chloro-N-(6-methanesulfonamido-1,3-benzothiazol-2-yl)-5′-methoxy-6-methyl-[4,4′-bipyridine]-3-carboxamide], less than 100 nM. In the case of `COc1cnc(Cl)cc1-c1cc(C)ncc1C(=O)Nc1nc2cncnc2s1` [Example 42, 2′-chloro-5′-methoxy-6-methyl-N-{[1,3]thiazolo[5,4-d]pyrimidin-2-yl}-[4,4′-bipyridine]-3-carboxamide], the IC50 is less than 100 nM.

On to `COc1cnc(Cl)cc1-c1cc(C)ncc1C(=O)Nc1nc2ccc(SC)cc2s1` [Example 43, 2′-chloro-5′-methoxy-6-methyl-N-[6-(methylsulfanyl)-1,3-benzothiazol-2-yl]-[4,4′-bipyridine]-3-carboxamide], for which the IC50 was less than 100 nM.

Turning to `COc1cnc(Cl)cc1-c1cc(C)ncc1C(=O)Nc1nc2ccncc2s1` [Example 44, 2′-chloro-5′-methoxy-6-methyl-N-{[1,3]thiazolo[5,4-c]pyridin-2-yl}-[4,4′-bipyridine]-3-carboxamide], the IC50 is less than 100 nM. As to `COc1cnc(Cl)cc1-c1cc(C)ncc1C(=O)Nc1nc2cnc(N3CCN(C(C)=O)CC3)nc2s1` [Example 45, N-[5-(4-acetylpiperazin-1-yl)-[1,3]thiazolo[5,4-d]pyrimidin-2-yl]-2′-chloro-5′-methoxy-6-methyl-[4,4′-bipyridine]-3-carboxamide], the IC50 is less than 100 nM. `COc1cnc(Cl)cc1-c1cc(C)ncc1C(=O)Nc1nc2cnc(NCCO)nc2s1` [Example 46, 2′-chloro-N-{5-[(2-hydroxyethyl)amino]-[1,3]thiazolo[5,4-d]pyrimidin-2-yl}-5′-methoxy-6-methyl-[4,4′-bipyridine]-3-carboxamide]: the IC50 is less than 100 nM.

What is called IC50 is the point on the concentration scale where inhibition reaches its midpoint.

The values above are taken from patent US20240327430A1 (Breakpoint Therapeutics GmbH, priority 2023, published 2024).
